In ChEMBL document CHEMBL3526110, “Preclinical evaluation of the metabolism and disposition of RRx-001, a novel investigative anticancer agent” (Drug Metab Dispos, 2012):

Columns and labels:
[1] = Drug level assessed as compound formation from RRx-001 after 1 hr in presence of reduced GSH at pH 7.8 by LC-MS/MS method; assay type: physicochemical; settings: pH 7.8, 1 h
[2] = system: Blood; test: Retention time in human whole blood in presence of 0.1% formic acid in water at 20 uM by LC-MS/MS method; assay type: ADME, tissue-based
[3] = system: Blood; test: Retention time in rat whole blood in presence of 0.1% formic acid in water at 20 uM by LC-MS/MS method; assay type: ADME, tissue-based
[4] = system: Blood; test: Retention time in human whole blood in presence of 0.1% formic acid in acetonitrile at 20 uM by LC-MS/MS method; assay type: ADME, tissue-based
[5] = system: Blood; test: Retention time in rat whole blood in presence of 0.1% formic acid in acetonitrile at 20 uM by LC-MS/MS method; assay type: ADME, tissue-based
[6] = system: Blood; test: Drug metabolism in human whole blood treated with 20 uM RRx-001 assessed as compound formation by LC-MS/MS method; assay type: ADME, tissue-based
[7] = system: Blood; test: Drug metabolism in rat whole blood treated with 20 uM RRx-001 assessed as compound formation by LC-MS/MS method; assay type: ADME, tissue-based

N[C@@H](CSCC(=O)N1CC([N+](=O)[O-])([N+](=O)[O-])C1)C(=O)O
Drug metabolism [1]: metabolite_detected
Retention_time [2]: 7.8 min
Retention_time [3]: 7.8 min
Retention_time [4]: 7.6 min
Retention_time [5]: 7.6 min
Drug metabolism [6]: metabolite_detected
Drug metabolism [7]: metabolite_detected
